Experimental findings from PubChem BioAssay (NCI) are described below.

Common to all, as to assay: growth of human tumour cells (NCI), 48 h
Assay [1] relates to KM12 colon.
Assay [2] concerns UACC-62 melanoma.
Assay [3] relates to NCI-H460 lung.
In assay [4] the test system is K-562 leukemia.
Assay [5] relates to SF-268 CNS.

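The compound was tested at five concentrations on cells cultured in 96-well plates, with a 48-hour exposure period. Abbreviation: GI50, concentration required for 50% inhibition of growth. At the TGI there is no net growth.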 Where only a bound is given, the exact number is not on record here.

Regarding `CCOC(=O)Nc1n[nH]nc1Cl`, the TGI in assay [1], in assay [2], in assay [3], in assay [4] and in assay [5] was above 100 µM throughout.

Consider `O=C1Nc2ccccc2/C1=C\c1c(-c2ccccc2)nc2n1CCS2`, for which the TGI is 37.5 µM in assay [1]; 27.4 µM in assay [2]; 41.9 µM in assay [3]; above 100 µM in assay [4]; 86.9 µM in assay [5].

With `NC(Cc1ccccc1)c1nn[nH]n1` (centres undefined), the TGI in assay [1], in assay [2], in assay [3], in assay [4] and in assay [5] was above 100 µM each time.

For `Fc1cccc(C2SCc3nc4cc5ccccc5cc4n32)c1` (centres undefined), the TGI in assay [1], in assay [2], in assay [4] and in assay [5] was above 100 µM each time.

As for `CCCCCCCCCCCCCCCC(=O)Nc1ccn(C2CCC(COP(=O)(O)OCC3OC(n4cc(F)c(=O)[nH]c4=O)CC3OC(C)=O)O2)c(=O)n1` (centres undefined), the TGI in assay [1] is 34.8 µM; in assay [2], 61.6 µM; in assay [3], above 100 µM; in assay [4], above 38.2 µM; in assay [5], above 82.8 µM.

In the case of `Cc1cc(C)c(S(=O)(=O)N(CCCN)OCCON(CCCN)S(=O)(=O)c2c(C)cc(C)cc2C)c(C)c1`, the TGI in assay [1] was 4.49 µM; in assay [2], 21.2 µM; in assay [3], 17 µM; in assay [4], above 100 µM; in assay [5] it was 5.37 µM.

Turning to `CC(Cc1cccc2c1Nc1ccccc1S2)N(C)CCO` (centres undefined), the TGI in assay [1], in assay [2], in assay [3], in assay [4] and in assay [5] was above 100 µM throughout.

For the compound `CCOC(=O)C1=CNC(C(=O)OCC)C1c1cccn1-c1ccccc1` (centres undefined), the TGI in assay [1] is 98.7 µM; in assay [2], above 100 µM; in assay [3], above 100 µM; in assay [4] it was above 100 µM; in assay [5], above 100 µM.

For the compound `C(=N\NC1=NCCN1)/c1cccc2cc3ccncc3nc12`, the TGI is 17.9 µM in assay [1], 31.4 µM in assay [2], 20.5 µM in assay [3] and 14.2 µM in assay [5].

As for `COC(=O)CC(CNC(=O)OCc1ccccc1)OCc1ccc(OC)cc1` (centres undefined), the TGI in assay [1], in assay [2], in assay [3] and in assay [4] was above 100 µM throughout.

On to `COc1cc(/C=C/C(=O)c2ccc(F)cc2)ccc1OCCCCCOc1cc2c(cc1OC)C(=O)N1CCCC1C=N2` (centres undefined), for which the GI50 in assay [1] was 0.0147 µM; in assay [2] it was 0.0582 µM; in assay [3], below 0.01 µM; in assay [4] it was 0.0306 µM; in assay [5], 0.0177 µM. The TGI in assay [1] turned out to be 0.0501 µM; in assay [2] it was 0.222 µM; in assay [3], 0.0179 µM; in assay [5], 0.0613 µM.

For `C=C(CCC/C(C)=C/C=C/[C@H](C)CCCc1ccoc1)C[C@@H]1OC(=O)[C@H](C)[C@@H]1O`, the TGI in assay [1] turned out to be 23.3 µM; in assay [2], 16.6 µM; in assay [3] it was 45 µM; in assay [4], 28.6 µM; in assay [5], 18.1 µM.

In the case of `COc1ccc2c(c1)-c1nc(=O)n(CCCN(C)C)c3ccc([N+](=O)[O-])c(c13)N2`, the TGI in assay [1] came out at 4.02 µM; in assay [2] it was 25.2 µM; in assay [3] it was 15.1 µM; in assay [4] it was 0.235 µM; in assay [5] it was 17.8 µM.

As for `COc1ccc(-n2c(Cn3nnc(-c4cccnc4)n3)nn(C3OC(COC(=O)c4ccccc4)C(OC(=O)c4ccccc4)C3OC(=O)c3ccccc3)c2=S)cc1` (centres undefined), the TGI in assay [1], in assay [2], in assay [3], in assay [4] and in assay [5] was above 100 µM throughout.

Consider `Cc1cnc2c(c1)C(=O)N(c1ccc([N+](=O)[O-])cc1)S2(=O)=O`, for which the TGI in assay [1], in assay [2], in assay [3] and in assay [5] was above 100 µM each time.

`CO[C@H]1O[C@@H]2OC3(C)CCC4[C@H](C)CCC([C@H]1C)[C@]42OO3` (some centres undefined): the TGI in assay [2], in assay [3], in assay [4] and in assay [5] was above 100 µM in each case.

As to `O=c1oc2ccc3ccccc3c2cc1-c1cn2c(n1)sc1ccccc12`, the TGI in assay [1], in assay [2], in assay [3], in assay [4] and in assay [5] was above 100 µM each time.

For the compound `O=C1CCSc2nc(-c3ccc4c(c3)OCO4)nn21`, the TGI in assay [1], in assay [2], in assay [3], in assay [4] and in assay [5] was above 10 µM in each case.

In the case of `C#C[C@]1(O)[C@@H](CO)O[C@@H](n2ccc(N)nc2=O)[C@@H]1O`, the TGI in assay [1] is 4.4 µM; in assay [2], 0.4 µM; in assay [3], 0.508 µM; in assay [4], above 100 µM; in assay [5], 6.04 µM.

Turning to `CCc1ccc(Nc2cc(=O)n(C)c(SCc3ccccc3)n2)cc1`, the TGI in assay [1], in assay [2], in assay [4] and in assay [5] was above 100 µM each time.

For `Cc1c(-c2nc(N)c(C#N)c(N)c2C#N)c(=O)oc2ccccc12`, the TGI in assay [1], in assay [2], in assay [3], in assay [4] and in assay [5] was above 100 µM each time.

For `O=C(Oc1c(Br)cc(Br)cc1C(=O)Oc1ccccc1)C(=O)Oc1c(Br)cc(Br)cc1C(=O)Oc1ccccc1`, the TGI in assay [1] is 84.1 µM; in assay [2], above 100 µM; in assay [3], above 100 µM; in assay [4], 55.7 µM; in assay [5] it was above 100 µM.

As for `O=C(NCCc1ccccc1)c1cc(/C=C/c2cc(O)ccc2O)ccc1O`, the TGI is 24.6 µM in assay [1]; 5.03 µM in assay [2]; 24.6 µM in assay [3]; 7.49 µM in assay [4]; 10.2 µM in assay [5].

As for `O=C1CCN2C(=N1)Sc1ccccc12`, the TGI in assay [1], in assay [2], in assay [3], in assay [4] and in assay [5] was above 100 µM each time.

Take `CC[C@@H]1CC[C@@H]2[C@H](CC[C@]3(C)[C@@H](OC(C)=O)CC[C@@H]23)[C@H]1C(=O)OC`: the TGI in assay [1] is 52.1 µM; in assay [2] it was 49.4 µM; in assay [3], 51.6 µM; in assay [4] it was 40.1 µM; in assay [5], 81.1 µM.

With `CN1CCN(c2ccc3[nH]c(C4=C(O)C(=O)[C@@H]5C(=C4O)N=C(CO)N5C)nc3n2)CC1`, the TGI in assay [1], in assay [2], in assay [3], in assay [4] and in assay [5] was above 100 µM in each case.

With `COc1cc2cc3c4cc(OC)c(OC)cc4cc[n+]3c(C)c2cc1OC`, the TGI in assay [1] is above 100 µM; in assay [2], 98.6 µM; in assay [3], above 100 µM; in assay [4] it was above 100 µM; in assay [5], above 100 µM.

In the case of `CCC(c1ccc(OC)cc1)C1NC(=S)NC1=O` (centres undefined), the TGI in assay [1], in assay [3], in assay [4] and in assay [5] was above 50 µM each time.

For the compound `CN1c2ccccc2C(=O)NC12CCNCC2`, the TGI in assay [1], in assay [2], in assay [3], in assay [4] and in assay [5] was above 100 µM in each case.

For the compound `Cc1c2ccccc2c(C2C3C(=O)N(c4cccc5ccccc45)C(=O)C3ON2Cc2ccc(CC(N)=O)cc2)c2ccccc12` (centres undefined), the TGI in assay [1] was above 50 µM; in assay [2], 47.3 µM; in assay [3], 48.6 µM; in assay [4] it was above 50 µM; in assay [5], above 50 µM.

In the case of `S=C(Nc1ccc2c(c1)oc1ccccc12)c1cccs1`, the TGI in assay [2] and in assay [5] was above 100 µM in each case.

For the compound `O=C(CCc1ccc(O)c(O)c1)NCCc1cc(O)c(O)c(O)c1`, the TGI in assay [1] was above 100 µM; in assay [2] it was above 100 µM; in assay [3], 40.8 µM; in assay [4], 41.4 µM; in assay [5], above 100 µM.

For `CCCNCC(O)CNc1ccc(NCC(O)CNCCC)c2c1C(=O)c1ccccc1C2=O` (centres undefined), the TGI in assay [1] was found to be 17.3 µM; in assay [2], 4.95 µM; in assay [3], 8.48 µM; in assay [4], 8.21 µM; in assay [5], 5.66 µM.

Consider `COC(=O)c1ccc(C)cc1C1CN=NC12Cc1cc(C)ccc1C2=O` (centres undefined), for which the TGI in assay [1] is 44.1 µM; in assay [2], above 87.3 µM; in assay [3] it was above 65.4 µM; in assay [4] it was above 68.1 µM; in assay [5] it was above 100 µM.

Regarding `OCC1OC(n2cnc3c(SCc4ccccc4)ncnc32)C(O)C1O` (centres undefined), the TGI in assay [1], in assay [2], in assay [3], in assay [4] and in assay [5] was above 100 µM in each case.

Turning to `COCC12CCC(OC)C34C5CC6(O)C(OC)C=C(C5C6OC(=O)c5ccccc5)C(C(OC)C13)C4N(C)C2` (centres undefined), the TGI in assay [1], in assay [2], in assay [3] and in assay [5] was above 100 µM in each case.

Consider `CN1C(C)(C)CC(=O)C(Br)C1(C)C` (centres undefined), for which the TGI in assay [1], in assay [2], in assay [3], in assay [4] and in assay [5] was above 100 µM in each case.

Regarding `Cn1nc(-c2ccccc2)c2c(-c3ccccc3)c3cc(Cl)ccc3nc21`, the TGI in assay [1], in assay [2], in assay [3], in assay [4] and in assay [5] was above 100 µM each time.

Consider `Cc1ccc(SCC(CF)OC(C)n2cnc3c(Cl)nc(N)nc32)cc1` (centres undefined), for which the TGI in assay [1], in assay [2], in assay [3] and in assay [5] was above 100 µM throughout.

For `CCCn1c(=O)c2nn3c(=O)n(CCC)c(=O)c3nn2c1=O`, the TGI in assay [1], in assay [2], in assay [3], in assay [4] and in assay [5] was above 100 µM each time.

Turning to `C/C(=N\O)C1CC2C=C(C#N)C1N(Cc1ccccc1)C2` (centres undefined), the TGI in assay [1], in assay [2], in assay [3], in assay [4] and in assay [5] was above 100 µM each time.

In the case of `CSC1=C(C#N)C(=O)N(c2ccc(C)cc2)C(=O)C1C#N` (centres undefined), the TGI in assay [1], in assay [2], in assay [3], in assay [4] and in assay [5] was above 100 µM throughout.

On to `O=C(O)c1cccc(OCCOc2cccc(C(=O)O)c2[N+](=O)[O-])c1[N+](=O)[O-]`, for which the TGI in assay [1], in assay [2], in assay [3] and in assay [5] was above 100 µM in each case.

Consider `c1ccc2cc(CNCCCCNCCCNCc3ccc4ccccc4c3)ccc2c1`, for which the TGI came to 0.97 µM in assay [1], 3.52 µM in assay [2], 0.338 µM in assay [3] and 2.83 µM in assay [5].

Take `CN1CC=C(c2cccn2C)CC1`: the TGI in assay [1], in assay [2], in assay [4] and in assay [5] was above 100 µM in each case.

Regarding `c1ccc2nn(C3CCCO3)nc2c1` (centres undefined), the TGI in assay [2], in assay [3], in assay [4] and in assay [5] was above 100 µM throughout.

Turning to `c1ccc(-c2cc(-c3ccncc3)cc(-c3ccncc3)n2)cc1`, the TGI in assay [1], in assay [2], in assay [4] and in assay [5] was above 100 µM in each case.

For the compound `Nc1nc(N)c2ncn(-c3ccccc3)c2n1`, the TGI in assay [1], in assay [2] and in assay [5] was above 100 µM throughout.

Consider `COC(=O)[C@@H](OC(C)=O)[C@@H](OC(C)=O)c1nnc2ccc(Cl)nn12`, for which the TGI in assay [1], in assay [2], in assay [3] and in assay [5] was above 100 µM each time.
